Measurements reported in PubChem BioAssay AID179 (DTP/NCI, 2004).
“And” between values parts separate entries of the source, which are not always exact repeats. Identical values can stand only once. The source made the active and inactive calls.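 Rule for the calls: active = compounds giving half or more protection of infected cells from virus-caused growth loss, again on retest; inactive = the rest.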 Where a SMILES comes first, the peptide text is derived from it. [ ]: non-standard residue; d: D form. The star is where a group is joined. X4 = CC(C)(C)c1cc(OCC(=O)*)ccc1Sc1c(O)cc(-c2ccccc2)oc1=O; NMeLeu(3R-OH) = CN[C@H](C(=O)O)[C@H](O)C(C)C; Myristoyl = CCCCCCCCCCCCCC(=O)*; NMeL = CN[C@@H](CC(C)C)C(=O)O; NMeV = CN[C@H](C(=O)O)C(C)C; dNMeS = CN[C@H](CO)C(=O)O; Abu = CC[C@H](N)C(=O)O

System: CEM cells HIV-1 protection, formazan growth assay
Assay: NCI AIDS Antiviral Assay
Settings: for IC50: measured here: growth of uninfected CEM cells
Method in brief: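 Five concentrations of each compound were applied to infected and uninfected human CEM cells. Protection from HIV-1 was judged from growth measured with a soluble formazan assay.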

Compound | EC50 [µM] | IC50 | outcome
Cn1c(=O)c(Br)c(C=O)n(CCO[N+](=O)[O-])c1=O | > 200 | 1.78 µM | –
O=C1C(C2CCCCC2)=C2OCC3COC2(O3)c2ccccc21 (configuration not stated) | > 74.1 | 30.2 µM | –
CCOP(=O)(CN1CCNCCNCC1)OCC | > 200 | > 200 µM | –
COC(=O)NC1=Nc2ccccc2N(C(=O)Oc2ccccc2)S1 | > 75.9 | 9.33 µM | –
COC(=O)C(CC(=O)Nc1ccc(C)cc1)C(=O)C(=O)Nc1c(C(C)C)cccc1C(C)C (configuration not stated) | > 79.4 | > 79.4 µM | –
COc1cc(CNc2cnc3ccc(N)cc3n2)cc(OC)c1OC | > 525 | 35.5 µM | –
CCOC(=O)[C@H]1[C@@H]2CCCC[C@@]23C(Cl)(Cl)[C@@]32C[C@]1(C(=O)OCC)CCC(=O)O2 | – | – | inactive
Nc1c(-c2ccccc2)c2ccc([N+](=O)[O-])cc2c(=O)n1-c1cccc(C(=O)O)c1 | > 200 | 135 µM | –
NCCCN(CCCCN(CCCN)CCCc1ccccc1)CCCc1ccccc1 | – | – | inactive
O=C1C(=O)N(c2cc(Cl)ccc2Cl)C(=O)C(=O)C1c1nc2ccccc2o1 | > 24.5 | > 24.5 µM | –
CCCCCCCCCCCc1c2oc3ccc([N+](=O)[O-])cc3nc-2cc(Nc2cc([N+](=O)[O-])ccc2O)c1=O | > 3.31 | > 3.31 µM | –
O=[N+]([O-])c1cc2ccc(N(CCO)CCO)nc2nc1N(CCO)CCO | > 200 | > 200 µM | –
CC1SC2=NC3=C(c4ccccc4C3=O)C(c3ccc(Cl)cc3)N2C1=O (configuration not stated) | > 35.5 | > 35.5 µM | –
Cc1nn(C(=O)Cc2ccccc2)c2c1C(c1ccc(N(C)C)cc1)SC(N)=N2 (configuration not stated) | 55 | > 200 µM | –
C/C(=N/NC(=S)NCCc1ccccn1)c1cnccn1 | > 200 | 8.71 µM | –
CCCCC(C(=O)O)C1=CCCCC1 (configuration not stated) | – | – | inactive
COc1ccc(NC(=O)CC(=O)NNC(Sc2ccccc2)c2cc(N=Nc3ccc(Br)cc3)ccc2O)cc1 (configuration not stated) | – | – | inactive
Nc1ncnc2c1ncn2C1CC(CO)CO1 (configuration not stated) | 209 | 214 µM | –
COc1cccc(OC)c1OC(=O)Nc1ccccc1F | > 200 | > 200 µM | –
COc1ccc(/C=C/C(=O)/C=C/c2ccc(OC)cc2OC)c(OC)c1 | > 200 | 3.89 µM | –
COc1cc(CNc2ccc(SC)cc2)cc(OC)c1OC | > 100 | 4.68 µM and 4.79 µM | –
COC(=O)C(=O)C(C(=O)C(=O)Nc1ccc(OC)cc1[N+](=O)[O-])c1nc2ccc([N+](=O)[O-])cc2[nH]c1=O (configuration not stated) | > 182 | 170 µM | –
CCOC(=O)c1[nH]n(-c2ccccc2)c(=O)c1/C=N/C(=S)NCc1ccccc1 | > 200 | 44.7 µM | –
Cc1cc(C)c(C(=O)/C(=C/c2ccccc2)c2ccccc2)c(C)c1 | > 15.8 | > 15.8 µM | –
COc1cccc(N)c1N | > 1170 | 18.2 µM | –
CN(C)/N=N/c1nc[nH]c1C(N)=O | > 74.1 | 4.9 µM | –
CC(C)C1COC(C(C)(C)C2=N[C@@H](C(C)C)CO2)=N1 (some centres not stated) | > 251 | 135 µM | –

Compound | EC50 [µM] | IC50 | outcome
CCN(CC)CC1CCCCCCCCCCC1=O (configuration not stated) | – | – | inactive
Cc1cccc(C)c1NC(=O)C(=O)C(C#N)c1ccccc1Cl (configuration not stated) | > 759 | > 759 µM | –
COc1cc2c(cc1OC)C13CCC(O)CC1=CC2(C)O3 (configuration not stated) | > 646 | > 646 µM | –
CO/C=C(/C#N)S(=O)(=O)/C(C#N)=C/OC | > 200 | > 200 µM | –
C=C1CN(S(=O)(=O)c2ccc(C)cc2)CCCN(C(=O)OC)CCCN(S(=O)(=O)c2ccc(C)cc2)C1 | > 200 | 107 µM | –
CSc1nc(NC2OC(COC(C)=O)C(OC(C)=O)C(OC(C)=O)C2OC(C)=O)c(N=CC=Nc2c(NC3OC(COC(C)=O)C(OC(C)=O)C(OC(C)=O)C3OC(C)=O)nc(SC)[nH]c2=O)c(=O)[nH]1 (configuration not stated) | – | – | inactive
CCCCCCCC/C=C\CCCCCCCCOP(=O)(O)OCCC=C(c1cc(Cl)c(O)c(C(=O)O)c1)c1cc(Cl)c(O)c(C(=O)O)c1 | > 77.6 | 69.2 µM | –
CC(C)N=C1CCCC1C(=S)SSC(=S)C1CCCC1=NC(C)C (configuration not stated) | > 200 | 10.7 µM | –
Nc1ncnc2c1ncn2C(CO)OC(CO)CCP(=O)(O)O (configuration not stated) | > 100 | > 100 µM | –
O=C1N(c2ccccc2)C(=O)C2(SC=NN2Cc2ccccc2)N1c1ccccc1 (configuration not stated) | – | – | inactive
Cc1c(-c2cnccn2)ssc1=S | > 200 | 102 µM | –
Cc1ccc(NC(=O)CC/C(CC(=O)C(C)(C)C)=N/NC(=O)C[N+](C)(C)C)cc1C | > 209 | > 209 µM | –
O=C1C[C@H]2[C@H](c3ccc(Br)cc3)[C@H]3C(=O)c4ccccc4NC(=O)[C@@H]3[C@@]2(O)c2ccccc2N1 | > 200 | 77.6 µM | –
Cc1cc(=O)[nH]c(-n2[nH]c(C)c(CCO)c2=O)n1 | > 200 | > 200 µM | –
O=C1c2ccccc2C(=O)c2c(O)c(NCCNCCO)cc(O)c21 | – | – | inactive
CC1=CC(=Nc2cccc3c(N=C4C=C(C)C(=O)O4)cccc23)OC1=O | > 200 | 1.41 µM | –
CC(NNC(=O)CC(=O)N(C(=O)c1ccccc1)c1ccc(Cl)cc1)c1cc2ccccc2oc1=O (configuration not stated) | > 200 | > 200 µM | –
CCCCCCCCN1CCCN(/N=C/c2c3c(O)c4c(O)c(C)c5c(c4c2O)C(=O)C(C)(O/C=C/C(OC)C(C)C(OC(C)=O)C(C)C(O)C(C)C(O)C(C)/C=C/C=C(C)C(=O)N3)O5)CC1 (configuration not stated) | > 200 | 7.24 µM | –
NS(=O)(=O)c1ccc(NC(=O)c2ccccc2SSc2ccccc2C(=O)Nc2ccc(S(N)(=O)=O)cc2)cc1 | 2.19 | 85.1 µM | –
O=C(Nc1ccc(C(F)(F)F)cc1)NC(F)(F)F | > 200 | > 200 µM | –
CCOC(=O)c1sc2c(C(=O)OCC)n3cc(C)cc(C)c3c2c1O | – | – | inactive
Cc1cccc(/C=N/NC(=S)N2CCCCCC2)n1 | > 200 | 0.0631 µM | –
CCCCCCCCCCCc1c2[nH]c3cc(C)ccc3oc2cc2[nH]c3cc(C)ccc3oc12 | > 2 | > 2 µM | –
CC(=O)NNC(=S)/N=C\c1c(O)c2ccccc2oc1=O | – | – | inactive
O=S(=O)(O)c1ccc(OCCCCCCCCCCOc2ccc(S(=O)(=O)O)cc2)cc1 | > 25.7 | > 25.7 µM | –
O=c1cc(C(F)(F)F)[nH]c2c3ncccc3c3nc4ccccc4nc3c12 | 0.214 | 2.82 µM | –
C(=Nc1cccnc1)c1ccc2ccccc2n1 | > 81.3 | 44.7 µM | –

Compound | EC50 [µM] | IC50 | outcome
Cc1ccc(-c2nn3c(-c4ccccc4)nnc3o2)cc1 | > 200 | 132 µM | –
CC1=C(c2ccccc2)NC(=S)C(C)C(c2ccccc2)=N1 (configuration not stated) | > 200 | 28.2 µM | –
O=c1nc2ccc3sc4ccccc4c(=O)c3n2c(=O)[nH]1 | > 200 | 110 µM | –
CC[C@@H]1NC(=O)[C@H]([C@H](O)C(C)C)N(C)C(=O)[C@H](C(C)C)N(C)C(=O)[C@H](CC(C)C)N(C)C(=O)[C@H](CC(C)C)N(C)C(=O)[C@@H](C)NC(=O)[C@H](CCCCNC(=O)COc2ccc(Sc3c(O)cc(-c4ccccc4)oc3=O)c(C(C)(C)C)c2)NC(=O)[C@H](CC(C)C)N(C)C(=O)[C@H](C(C)C)NC(=O)[C@H](CC(C)C)N(C)C(=O)[C@@H](CO)N(C)C1=O (cyclo([Abu][dNMeS][NMeL]V[NMeL]K(X4)[dA][NMeL][NMeL][NMeV][NMeLeu(3R-OH)])) | > 67.6 | 4.57 µM | –
C=C1C(=O)C23C(O)C1CC[C@H]2C12CCCC(C)(C)[C@H]1[C@H](O)[C@]3(O)OC2 (some centres not stated) | > 724 | 0.339 µM | –
CCNC(=S)NCCc1c[nH]c2ccccc12 | > 200 | 186 µM | –
Cc1ccnc(NS(=O)(=O)c2ccc(N=Nc3cc4ccccc4c(C(=O)O)c3O)cc2)n1 | > 200 | 10 µM | –
CN1CC2=C(NC(=S)NC2c2ccccc2)/C(=C/c2ccccc2)C1 (configuration not stated) | 19.1 | 85.1 µM | –
C=CCOC1CC(n2cnc3c(N)ncnc32)OC1CO (configuration not stated) | > 200 | > 200 µM | –
CN(C)CCCN1c2ccccc2Sc2ccc(C(F)(F)F)cc21 | > 200 | 107 µM | –
COc1ccc(C(c2ccc(C(C)C)cc(=O)c2O)c2c(O)cc3oc(-c4ccccc4)cc(=O)c3c2O)cc1 (configuration not stated) | – | – | inactive
CCOC(=O)CN1C(=O)c2ccc(NC(=O)C(=O)O)cc2S1(=O)=O | > 200 | > 200 µM | –
CCN(CC)c1cc2oc(=O)cc(C)c2cc1NC(=O)c1cc(N)cc(N)c1 | > 100 | 19.5 µM | –
CCCCCCCCCCCCCC(=O)NCC(=O)NC(CO)C(=O)NC(CO)C(=O)NC(CCCCN)C(=O)NC(CO)C(=O)NC(CCCCN)C(=O)N1CCCC1C(=O)NC(CCCCN)C(=O)NC(CC(=O)O)C(=O)N1CCCC1C(=O)NC(CO)C(=O)NC(CCC(N)=O)C(=O)NC(CCCNC(=N)N)C(=O)NC(CCCNC(=N)N)C(=O)NC(CCCNC(=N)N)C(=O)NC(Cc1ccc(O)cc1)C(N)=O (configuration not stated) (Myristoyl-GSSKSKPKDPSQRRRY-NH2; configuration not given here) | > 120 | > 120 µM | –
Cc1cc2c(C)nn(Cc3ccccc3)c2c(C(=O)O)c1C | > 123 | > 123 µM | –
OC1C2CCN(CC2)C1CNC12CC3CC(CC(C3)C1)C2 (configuration not stated) | > 1740 | 295 µM | –
C/C(=N/N=C(\[O-])c1ccncc1)C(F)(F)F.C/C(=N\N=C(/[O-])c1ccncc1)C(F)(F)F.[Ni+2] | > 200 | 89.1 µM | –
Nc1ccc(CCN2CCN(c3cccc(C(F)(F)F)c3)CC2)cc1I | – | – | inactive
NC(CO)(CO)CO | > 200 | > 200 µM | –
CCCOC(=O)c1cc(OC(C)=O)c2c(OC)ccc(OC)c2c1 | > 40.7 | > 40.7 µM | –
C[C@H]1Oc2c3c(c4ccc(=O)oc4c2C(=O)[C@@H]1C)OC(C)(C)C=C3 | > 200 | > 200 µM | –
COc1ccc(OC)c(N(CN2C(=O)CCC2C(=O)O)C(C)=O)c1 (configuration not stated) | > 200 | > 200 µM | –
C=C(C)COc1ccc(C2OCC(CC)C(CCC)O2)cc1 (configuration not stated) | > 200 | 89.1 µM | –
CC12CCC(=O)[C@@]1(C)CCCC2O (some centres not stated) | – | – | inactive
[Cl-].[Cl-].[Pt+4].[S-]c1ncccn1.[S-]c1ncccn1 | > 100 | 0.355 µM | –
CCC(C)[C@H](NC(=O)N[C@H](C)c1ccccc1)C(=O)OC (some centres not stated) | > 200 | > 200 µM | –
